Assay results from EP0647618A1, “NEW NON IONIC IODINE-CONTAINING DIMERS USEFUL AS X-RAY CONTRAST AGENTS, METHOD FOR THE PREPARATION THEREOF, AND GALENICAL COMPOSITIONS CONTAINING THEM” (CENTRO INVESTIGACION JUSTESA IMAGEN S.A., priority 1993, dated 1994).
Like-named read-outs stand apart in the source and are kept apart here.

How the values were obtained:
[1] = Osmolality of aqueous solution at 300 mg I/ml; type: physicochemical; conditions: for OSMOLALITY mOsm/kg at 300 mg I/ml: 300 mg I/ml (Table II); for OSMOLALITY 37°C mOsm/kg at 300 mg I/ml: 300 mg I/ml (Table I)
[2] = Viscosity of aqueous solution at 300 mg I/ml; type: physicochemical; conditions: for VISCOSITY 37°C mPa.s 300 mg I/ml: 300 mg I/ml (Table I); for VISCOSITY mPas (37°C) at 300 mg I/ml: 300 mg I/ml (Table II)
RAT = assay: General toxicity, average lethal dose (DL50) in the rat, i.v.; type: in vivo
Procedure: (§1) On the other hand, radiologists need compounds with a wide range of uses: for example, angiography, urography, myelography, cisternography, lymphography, cardiography and gastrography. The products according to this invention fulfil the requirements for the above uses, as they have high water solubility, normally higher than 60% (w/v), which, in some cases, is as high as 100% at 20°C, without showing any tendency to crystallize. They also have a very low general toxicity, stated as the average lethal dose for the rat, DL₅₀.

physchem = type: physicochemical; conditions: for solubility: water
Procedure: as §1

[3] = 20°C (Table II), read-out: SOLUBILITY IN WATER at 20°

| SMILES | OSMOLALITY mOsm/kg at 300 mg I/ml [1] [mOsm/kg] | OSMOLALITY 37°C mOsm/kg at 300 mg I/ml [1] [mOsm/kg] | VISCOSITY 37°C mPa.s 300 mg I/ml [2] [mPa.s] | VISCOSITY mPas (37°C) at 300 mg I/ml [2] [mPas] | DL50 (RAT) via i.v. g I/kg (RAT) [g I/kg] | SOLUBILITY IN WATER at 20° (physchem; 20°C (Table II)) [%] | solubility (physchem; 20°C (Table I), read-out: SOLUBILITY in water at 20°C (w/v)) [mg/mL] | SOLUBILITY IN WATER at 20° (physchem) [%] | solubility (physchem) [mg/mL] | solubility (physchem; [3]) [mg/mL] |
| --- | --- | --- | --- | --- | --- | --- | --- | --- | --- | --- |
| O=C(CN(CCO)CC(=O)Nc1c(I)c(C(=O)NCC(O)CO)c(I)c(C(=O)NCC(O)CO)c1I)Nc1c(I)c(C(=O)NCC(O)CO)c(I)c(C(=O)NCC(O)CO)c1I (stereo not shown) [ICJ-1192, N,N'-Bis-{3,5-bis-[N-(2,3-dihydroxypropyl)carbamoyl]-2,4,6-triiodophenyl}-3-(2-hydroxyethyl)-3-azapentanediamide] | 167 | 167 | 9.4 | 9.4 | > 25 | > 60 | > 600 |  |  |  |
| O=C(CN(CCO)CC(=O)Nc1c(I)c(C(=O)NC(CO)C(O)CO)c(I)c(C(=O)NC(CO)C(O)CO)c1I)Nc1c(I)c(C(=O)NCCO)c(I)c(C(=O)NCCO)c1I (stereo not shown) [ICJ-1592] | 151 | 151 | 8.4 | 8.4 | > 20 |  |  | > 60 | > 600 |  |
| CN(C(=O)CN(CCO)CC(=O)N(C)c1c(I)c(C(=O)NCC(O)CO)c(I)c(C(=O)NCC(O)CO)c1I)c1c(I)c(C(=O)NCC(O)CO)c(I)c(C(=O)NCC(O)CO)c1I (stereo not shown) [ICJ-1692, N,N'-Bis-{3,5-bis-[N-(2,3-dihydroxypropyl)carbamoyl]-2,4,6-triiodophenyl}-N,N'-dimethyl-3-(2-hydroxethyl)-3-azapentanediamide] | 174 | 174 | 9.3 | 9.3 | > 20 |  |  | > 60 | > 600 |  |
| CN(C(=O)CN(CCO)CC(=O)Nc1c(I)c(C(=O)NCC(O)CO)c(I)c(C(=O)NCC(O)CO)c1I)c1c(I)c(C(=O)NCC(O)CO)c(I)c(C(=O)NCC(O)CO)c1I (stereo not shown) [ICJ-1792, N,N'-Bis-{3,5-bis-[N-(2,3-dihydroxypropyl)carbamoyl]-2,4,6-triiodophenyl}-N-methyl-3-(2-hydroxyethyl)-3-azapentanediamide] | 157 |  |  | 10.6 |  |  |  |  |  | > 600 |
| CN(C(=O)CN(CCO)CC(=O)Nc1c(I)c(C(=O)NCCO)c(I)c(C(=O)NCCO)c1I)c1c(I)c(C(=O)NC(CO)C(O)CO)c(I)c(C(=O)NC(CO)C(O)CO)c1I (stereo not shown) [ICJ-1892, N{3,5-Bis-[N-(1-hydroxymethyl-2,3-dihydroxypropyl)carbamoyl]-2,4,6-triiodophenyl}-N-methyl-N'-{3,5-bis-[N-(2-hydroxyethyl)carbamoyl]-2,4,6-triiodophenyl}-3-(2-hydroxyethyl)-3-azapentanediamide] | 133 |  |  | 9.7 |  |  |  |  |  | > 600 |
| CN(C(=O)CN(CCO)CC(=O)Nc1c(I)c(C(=O)NC(CO)C(O)CO)c(I)c(C(=O)NC(CO)C(O)CO)c1I)c1c(I)c(C(=O)NCCO)c(I)c(C(=O)NCCO)c1I (stereo not shown) [ICJ-1992, N-{3,5-Bis-[N-(1-hydroxymethyl-2,3-dihydroxypropyl)carbamoyl]-2,4,6-triiodophenyl}-N'-methyl-N'-{3,5-bis-[N-(2-hydroxyethyl)carbamoyl]-2,4,6-triiodophenyl}-3-(2-hydroxyethyl)-3-azapentanediamide] | 164 |  |  | 9.1 |  |  |  |  |  | > 600 |
| CN(C(=O)CN(CCO)CC(=O)N(C)c1c(I)c(C(=O)NC(CO)C(O)CO)c(I)c(C(=O)NC(CO)C(O)CO)c1I)c1c(I)c(C(=O)NCCO)c(I)c(C(=O)NCCO)c1I (stereo not shown) [ICJ-2092, N-{3,5-Bis-[N-(1-hydroxymethyl-2,3-dihydroxypropyl)carbamoyl]-2,4,6-triiodophenyl}-N'-{3,5-bis-[N-(2-hydroxyethyl)carbamoyl]-2,4,6-triiodophenyl}-N,N'-dimethyl-3-(2-hydroxyethyl)-3-azapentanediamide] | 188 |  |  | 9.5 |  |  |  |  |  | > 600 |
| CN(C(=O)CN(CCO)CC(=O)N(C)c1c(I)c(C(=O)NCC(O)CO)c(I)c(C(=O)NCC(O)CO)c1I)c1c(I)c(C(=O)NCCO)c(I)c(C(=O)NCCO)c1I (stereo not shown) [ICJ-2292, N-{3,5-Bis-[N-(2,3-dihydroxypropyl)carbamoyl]-2,4,6-triiodophenyl}-N'-{3,5-bis-[N-(2-hydroxyethyl)carbamoyl]-2,4,6-triiodophenyl}-N,N'-dimethyl-3-(2-hydroxyethyl)-3-azapentanediamide] | 162 |  |  | 11.0 |  |  |  |  |  | > 600 |
| O=C(CN(CC(=O)Nc1c(I)c(C(=O)NCCO)c(I)c(C(=O)NCCO)c1I)C(CO)C(O)CO)Nc1c(I)c(C(=O)NCCO)c(I)c(C(=O)NCCO)c1I (stereo not shown) [ICJ-2592, N,N'-Bis-{3,5-bis-[N-(2-hydroxyethyl)carbamoyl]-2,4,6-triiodophenyl}-3-(1-hydroxymethyl-2,3-dihydroxypropyl)-3-azapentanediamide] | 180 |  |  | 9.1 |  |  |  |  |  | > 600 |
| COCCN(CC(=O)Nc1c(I)c(C(=O)NCC(O)CO)c(I)c(C(=O)NCC(O)CO)c1I)CC(=O)Nc1c(I)c(C(=O)NCC(O)CO)c(I)c(C(=O)NCC(O)CO)c1I (stereo not shown) [ICJ-2692, N,N'-Bis-{3,5-bis-[N-(2,3-dihydroxypropyl)carbamoyl]-2,4,6-triiodophenyl}-3-(2-methoxyethyl)-3-azapentanediamide] | 185 |  |  | 9.7 |  |  |  |  |  | > 600 |
| COCCN(CC(=O)N(C)c1c(I)c(C(=O)NCC(O)CO)c(I)c(C(=O)NCC(O)CO)c1I)CC(=O)N(C)c1c(I)c(C(=O)NCC(O)CO)c(I)c(C(=O)NCC(O)CO)c1I (stereo not shown) [ICJ-2892, N,N'-Bis-{3,5-bis-[N-(2,3-dihydroxypropyl)carbamoyl]-2,4,6-triiodophenyl}-N,N'-dimethyl-3-(2-methoxymethyl)-3-azapentanediamide] | 200 |  |  | 10.8 |  |  |  |  |  | > 600 |
| CC(=O)N(CC(O)CN(C(C)=O)c1c(I)c(C(=O)NCC(O)CO)c(I)c(C(=O)NCC(O)CO)c1I)c1c(I)c(C(=O)NCC(O)CO)c(I)c(C(=O)NCC(O)CO)c1I (stereo not shown) [IODIXANOL, Iodixanol, reference compound] |  | 190 | 8.7 |  | > 20 |  |  |  | > 600 |  |
